Assay results reported in patent US9393221B2, “Methods and compounds for reducing intracellular lipid storage” (THE GENERAL HOSPITAL CORPORATION, priority 2011, dated 2016).
Structures can show the parent of a compound that is named as a salt.
For Z-score in this document: test concentration or dose not given here.

What follows are molecules tested on ATGL-KO iPSCs (assay: High throughput iPSC chemical screening, Oil Red O (ORO) lipid accumulation). Conditions: not given.
Format: cell-based, mouse
For `Oc1ccc2c3c1O[C@H]1[C@@H](O)CC[C@@]4(O)[C@@H](C2)N(CC2CCC2)CC[C@]314` [Nalbuphine hydrochloride], the Z-score was −1.0996. `CNCCC(Oc1ccccc1OC)c1ccccc1` (stereo not drawn) [Nisoxetine hydrochloride] gave a Z-score of −1.699.

Same assay, conditions: glycolytic switch compounds
`O=C(N/N=C/c1ccc([N+](=O)[O-])o1)c1ccc(O)cc1` [Nifuroxazide] was tested, and the “Rank in normalized ORO score from screen” value was 957.

Same assay, conditions: normalized ORO level vs DMSO-treated cells; compound present during 7 days differentiation, 96-well; negative = decrease in lipid accumulation
`COc1ccccc1N1CCN(CC(O)COc2cccc3ccccc23)CC1` (stereo not drawn) [Naftopidil dihydrochloride] showed a Z-score of −0.9212. Work on `CCn1cc(C(=O)O)c(=O)c2ccc(C)nc21` [Nalidixic acid sodium salt hydrate] yielded a Z-score of −0.4868. In the case of `C=CCN1CC[C@]23c4c5ccc(O)c4O[C@H]2C(=O)CC[C@@]3(O)[C@H]1C5` [Naloxone hydrochloride], the Z-score is reported as −0.3899. `O=C1CC[C@@]2(O)[C@H]3Cc4ccc(O)c5c4[C@@]2(CCN3CC2CC2)[C@H]1O5` [Naltrexone hydrochloride dihydrate] was tested, and the Z-score was −0.609. Molecule `C=C1[C@H]2C[C@@]3([C@@H]1O)[C@@H](C[C@@H]2O)[C@]12[C@@H]4C[C@H]3[C@H]1N(CC)C[C@]4(C)CC[C@@H]2O` [Napelline] has a Z-score of −1.869. In the case of `c1ccc2c(CC3=NCCN3)cccc2c1` [Naphazoline hydrochloride], the Z-score is reported as −0.8458. In the case of `COc1ccc2cc([C@H](C)C(=O)O)ccc2c1` [Naproxen], the Z-score is reported as −0.3678. `O=C1C[C@@H](c2ccc(O)cc2)Oc2cc(O)cc(O)c21` [Naringenine] showed a Z-score of 1.336. `C[C@@H]1O[C@@H](O[C@H]2[C@H](Oc3cc(O)c4c(c3)O[C@H](c3ccc(O)cc3)CC4=O)O[C@H](CO)[C@@H](O)[C@@H]2O)[C@H](O)[C@H](O)[C@H]1O` [Naringin hydrate] gave a Z-score of 2.68. Molecule `C[C@@H]1C/C=C/C=C/C=C/C=C/[C@H](O[C@@H]2O[C@H](C)[C@@H](O)[C@H](N)[C@@H]2O)C[C@@H]2O[C@](O)(C[C@@H](O)C[C@H]3O[C@@H]3/C=C/C(=O)O1)C[C@H](O)[C@H]2C(=O)O` [Natamycin] has a Z-score of 0.06039. For `CN1CCOC(c2ccccc2)c2ccccc2C1` (stereo not drawn) [Nefopam hydrochloride], the Z-score was −0.0308. `NC[C@@H]1O[C@H](O[C@H]2[C@@H](O)[C@H](O[C@@H]3[C@@H](O)[C@H](N)C[C@H](N)[C@H]3O[C@H]3O[C@H](CN)[C@@H](O)[C@H](O)[C@H]3N)O[C@@H]2CO)[C@H](N)[C@@H](O)[C@@H]1O.O=S(=O)(O)O` [Neomycin sulfate] gave a Z-score of −0.2127. Molecule `CN(C)C(=O)Oc1cccc([N+](C)(C)C)c1` [Neostigmine bromide] has a Z-score of 1.386. `CCN[C@@H]1C[C@H](N)[C@@H](O[C@H]2OC(CN)=CC[C@H]2N)[C@H](O)[C@H]1O[C@H]1OC[C@](C)(O)[C@H](NC)[C@H]1O.CCN[C@@H]1C[C@H](N)[C@@H](O[C@H]2OC(CN)=CC[C@H]2N)[C@H](O)[C@H]1O[C@H]1OC[C@](C)(O)[C@H](NC)[C@H]1O.O=S(=O)(O)O.O=S(=O)(O)O.O=S(=O)(O)O.O=S(=O)(O)O.O=S(=O)(O)O` [Netilmicin sulfate] gave a Z-score of 1.062. `O=C(O)c1cccnc1` [Niacin] gave a Z-score of −0.8285. `O=C(CCNNC(=O)c1ccncc1)NCc1ccccc1` [Nialamide] was tested, and the Z-score was 0.6794. In the case of `COC(=O)C1=C(C)NC(C)=C(C(=O)OCCN(C)Cc2ccccc2)C1c1cccc([N+](=O)[O-])c1` (stereo not drawn) [Nicardipine hydrochloride], the Z-score is reported as 1.451. `CO[C@]12C[C@@H](COC(=O)c3cncc(Br)c3)CN(C)[C@@H]1Cc1cn(C)c3cccc2c13` [Nicergoline] showed a Z-score of 0.2433. In the case of `O=C(Nc1ccc([N+](=O)[O-])cc1Cl)c1cc(Cl)ccc1O` [Niclosamide], the Z-score is reported as 25.4633. Work on `Cc1c(NC(=O)c2cccnc2)c(=O)n(-c2ccccc2)n1C` [Nifenazone] yielded a Z-score of 0.1131. Work on `O=C(O)c1cccnc1Nc1cccc(C(F)(F)F)c1` [Niflumic acid] yielded a Z-score of −0.6436. With `O=C(N/N=C/c1ccc([N+](=O)[O-])o1)c1ccc(O)cc1` [Nifuroxazide] the Z-score was 1.279. `CC1CS(=O)(=O)CCN1/N=C/c1ccc([N+](=O)[O-])o1` (stereo not drawn) [Nifurtimox] gave a Z-score of 0.2485. For `CC1(C)NC(=O)N(c2ccc([N+](=O)[O-])c(C(F)(F)F)c2)C1=O` [Nilutamide], the Z-score was −1.5582. `CS(=O)(=O)Nc1ccc([N+](=O)[O-])cc1Oc1ccccc1` [Nimesulide] showed a Z-score of −1.0153. Molecule `COCCOC(=O)C1=C(C)NC(C)=C(C(=O)OC(C)C)C1c1cccc([N+](=O)[O-])c1` (stereo not drawn) [Nimodipine] has a Z-score of −1.6971. Work on `O=C1NCCN1c1ncc([N+](=O)[O-])s1` [Niridazole] yielded a Z-score of 1.446. In the case of `Cl.Cl.c1ccc2c3c([nH]c2c1)C1C2CCC(C4CCCNC42)N1CC3` (stereo not drawn) [Nitrarine dihydrochloride], the Z-score is reported as −0.8582. In the case of `CCOC(=O)C1=C(C)NC(C)=C(C(=O)OC)C1c1cccc([N+](=O)[O-])c1` (stereo not drawn) [Nitrendipine], the Z-score is reported as −1.7782. `CCN(CC)CCOC(=O)C1(c2ccc([N+](=O)[O-])cc2)CCCC1.Cl` [Nitrocaramiphen hydrochloride] showed a Z-score of −1.1255. Molecule `NC(=O)N/N=C/c1ccc([N+](=O)[O-])o1` [Nitrofural] has a Z-score of −0.866. `O=C1CN(/N=C/c2ccc([N+](=O)[O-])o2)C(=O)N1` [Nitrofurantoin] gave a Z-score of 0.3631. Work on `CNC(=C[N+](=O)[O-])NCCSCc1csc(CN(C)C)n1` [Nizatidine] yielded a Z-score of −0.1369. For `COC(=O)Nc1nc2ccc(C(=O)c3cccs3)cc2[nH]1` [Nocodazole], the Z-score was 18.0445. `CC(=O)O[C@]1(C(C)=O)CC[C@H]2[C@@H]3C=C(C)C4=CC(=O)CC[C@@H]4[C@H]3CC[C@@]21C` [Nomegestrol acetate] gave a Z-score of 1.552. In the case of `CN1Cc2c(N)cccc2C(c2ccccc2)C1` (stereo not drawn) [Nomifensine maleate], the Z-score is reported as −1.3149. For `CNCCC=C1c2ccccc2C=Cc2ccccc21` [Norcyclobenzaprine], the Z-score was −0.6046. Work on `C#C[C@]1(O)CC[C@H]2[C@@H]3CCC4=CC(=O)CC[C@@H]4[C@H]3CC[C@@]21C` [Norethindrone] yielded a Z-score of −0.6688. For `C#C[C@]1(O)CC[C@H]2[C@@H]3CCC4=C(CCC(=O)C4)[C@H]3CC[C@@]21C` [Norethynodrel], the Z-score was −0.7872. For `CCn1cc(C(=O)O)c(=O)c2cc(F)c(N3CCNCC3)cc21` [Norfloxacin], the Z-score was 0.6666. `C#C[C@]1(O)CC[C@H]2[C@@H]3CCC4=CC(=O)CC[C@@H]4[C@H]3CC[C@@]21CC` [Norgestrel-(−)-D] gave a Z-score of 1.412. Molecule `CNCCC=C1c2ccccc2CCc2ccccc21` [Nortriptyline hydrochloride] has a Z-score of −1.28. For `COc1ccc2c(c1OC)C(=O)O[C@@H]2[C@H]1c2c(cc3c(c2OC)OCO3)CCN1C` [Noscapine], the Z-score was 0.8948. `CO[C@@H]1[C@@H](OC(N)=O)[C@@H](O)[C@H](Oc2ccc3c(O)c(NC(=O)c4ccc(O)c(CC=C(C)C)c4)c(=O)oc3c2C)OC1(C)C` [Novobiocin sodium salt] gave a Z-score of −1.5591. Work on `C[C@@H]1[C@H](O)[C@@H](C)/C=C/C=C/CC/C=C/C=C/C=C/C=C/C(O[C@H]2O[C@H](C)[C@@H](O)[C@H](N)[C@@H]2O)CC2O[C@](O)(CC(O)C(O)CCC(O)CC(O)CC(O)CC(=O)O[C@H]1C)CC(O)C2C(=O)O` (stereo partly drawn) [Nystatine] yielded a Z-score of −0.6743. Work on `CC1COc2c(N3CCN(C)CC3)c(F)cc3c(=O)c(C(=O)O)cn1c23` (stereo not drawn) [Ofloxacin] yielded a Z-score of 0.7623. `CO[C@H]1C[C@H](O[C@H]2[C@H](C)[C@@H](O[C@@H]3O[C@H](C)C[C@H](N(C)C)[C@H]3O)[C@@H](C)C[C@@]3(CO3)C(=O)[C@H](C)[C@@H](O)[C@@H](C)[C@@H](C)OC(=O)[C@@H]2C)O[C@@H](C)[C@@H]1O` [Oleandomycin phosphate] was tested, and the Z-score was 0.5069. In the case of `COc1ccc2[nH]c([S+]([O-])Cc3ncc(C)c(OC)c3C)nc2c1` (stereo not drawn) [Omeprazole], the Z-score is reported as −0.5848. Molecule `Cc1nccn1CC1CCc2c(c3ccccc3n2C)C1=O` (stereo not drawn) [Ondansetron Hydrochloride] has a Z-score of −0.6933. Work on `Cc1ncc([N+](=O)[O-])n1CC(O)CCl` (stereo not drawn) [Ornidazole] yielded a Z-score of 0.7824. Molecule `Cc1ccccc1C(OCCN(C)C)c1ccccc1` (stereo not drawn) [Orphenadrine hydrochloride] has a Z-score of −0.3046. `CCN(CC)CCc1nc(-c2ccccc2)no1.O=C(O)CC(O)(CC(=O)O)C(=O)O` [Oxalamine citrate salt] showed a Z-score of −1.3452. With `CN1CCCN=C1/C=C/c1cccc(O)c1.O=C(O)c1cc2ccccc2c(Cc2c(O)c(C(=O)O)cc3ccccc23)c1O` [Oxantel pamoate] the Z-score was 1.422. In the case of `O=C(O)CCc1nc(-c2ccccc2)c(-c2ccccc2)o1` [Oxaprozin], the Z-score is reported as −1.009. For `CN(C(=O)CN(CCO)CC(=O)N(C)C(C)(C)Cc1ccccc1)C(C)(C)Cc1ccccc1` [Oxethazaine], the Z-score was −0.9515. `CCn1cc(C(=O)O)c(=O)c2cc3c(cc21)OCO3` [Oxolinic acid] gave a Z-score of −1.0488. For `C=CCOc1ccccc1OCC(O)CNC(C)C` (stereo not drawn) [Oxprenolol hydrochloride], the Z-score was −0.2057. `COc1ccc(C(=O)c2ccccc2)c(O)c1` [Oxybenzone] gave a Z-score of −1.1732. `CCN(CC)CC#CCOC(=O)C(O)(c1ccccc1)C1CCCCC1` (stereo not drawn) [Oxybutynin chloride] was tested, and the Z-score was −1.0993. `Cc1cc(C(C)(C)C)c(O)c(C)c1CC1=NCCN1` [Oxymetazoline hydrochloride] gave a Z-score of 0.1199. With `CCCCC1C(=O)N(c2ccccc2)N(c2ccc(O)cc2)C1=O` (stereo not drawn) [Oxyphenbutazone] the Z-score was −1.1165. With `CN(C)[C@@H]1C(O)=C(C(N)=O)C(=O)[C@@]2(O)C(O)=C3C(=O)c4c(O)cccc4[C@@](C)(O)[C@H]3[C@H](O)[C@@H]12` [Oxytetracycline dihydrate] the Z-score was 1.185. For `O=C(O)/C=C/c1ccc(Cn2ccnc2)cc1` [Ozagrel hydrochloride], the Z-score was −0.6787. In the case of `CC(=O)O[C@H]1C(=O)[C@@]2(C)[C@H]([C@H](OC(=O)c3ccccc3)[C@]3(O)C[C@H](OC(=O)[C@H](O)[C@@H](NC(=O)c4ccccc4)c4ccccc4)C(C)=C1C3(C)C)[C@]1(OC(C)=O)CO[C@@H]1C[C@@H]2O` [Paclitaxel], the Z-score is reported as 48.9183. Molecule `COc1cc2c(cc1OC)-c1cc3ccc(OC)c(OC)c3c[n+]1CC2` [Palmatine chloride] has a Z-score of 6.905. For `CC(=O)O[C@H]1C[C@@H]2CC[C@@H]3[C@H](CC[C@@]4(C)[C@H]3C[C@H]([N+]3(C)CCCCC3)[C@@H]4OC(C)=O)[C@@]2(C)C[C@@H]1[N+]1(C)CCCCC1` [Pancuronium bromide], the Z-score was 0.2708.
